Laboratory results published in patent publication US8329686B2, “Isatin analogues and uses therefor” (Washington University, priority 2006, dated 2012).
Like-named read-outs stand apart in the source and are kept apart here. Values belong to the compound of their own block, whether it stands above or below them.

Experiments:
caspase 7 = target: T1, caspase 7 (Homo sapiens, UniProt P55210); test: Enzyme inhibition assay, caspase 7 (fluorogenic Ac-DEVD-AMC); type: biochemical
T1 construct: purchased Sigma-Aldrich (St. Louis, Mo.)
T1 sequence (P55210 24-198 limits assumed): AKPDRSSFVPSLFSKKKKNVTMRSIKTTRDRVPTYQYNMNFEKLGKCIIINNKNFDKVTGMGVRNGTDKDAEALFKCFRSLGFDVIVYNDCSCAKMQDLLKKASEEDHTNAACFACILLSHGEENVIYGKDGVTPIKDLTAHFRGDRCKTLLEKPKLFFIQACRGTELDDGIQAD
T1 sequence (P55210 207-303 limits assumed): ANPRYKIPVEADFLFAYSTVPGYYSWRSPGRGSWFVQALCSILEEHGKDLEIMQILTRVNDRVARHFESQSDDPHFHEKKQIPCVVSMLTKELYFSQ

caspase 6 = target: T2, caspase 6 (Homo sapiens, UniProt P55212); test: Enzyme inhibition assay, caspase 6 (fluorogenic Ac-VEID-AMC); type: biochemical
T2 construct: purchased Sigma-Aldrich (St. Louis, Mo.)
T2 sequence (P55212 24-179 limits assumed): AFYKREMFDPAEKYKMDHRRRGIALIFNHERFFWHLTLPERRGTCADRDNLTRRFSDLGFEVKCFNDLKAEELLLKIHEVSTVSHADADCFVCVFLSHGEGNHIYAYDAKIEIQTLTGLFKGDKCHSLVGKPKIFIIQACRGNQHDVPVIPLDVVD
T2 sequence (P55212 194-293 limits assumed): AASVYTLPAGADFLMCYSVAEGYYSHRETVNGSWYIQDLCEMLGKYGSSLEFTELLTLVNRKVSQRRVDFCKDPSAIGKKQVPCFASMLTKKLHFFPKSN

caspase 1 = target: T3, caspase 1 (Homo sapiens, UniProt P29466); test: Enzyme inhibition assay, caspase 1 (fluorogenic Ac-YVAD-AMC); type: biochemical
T3 construct: purchased BIOMOL Research Laboratories (Plymouth Meeting, Pa.)
T3 sequence (P29466 120-297 limits assumed): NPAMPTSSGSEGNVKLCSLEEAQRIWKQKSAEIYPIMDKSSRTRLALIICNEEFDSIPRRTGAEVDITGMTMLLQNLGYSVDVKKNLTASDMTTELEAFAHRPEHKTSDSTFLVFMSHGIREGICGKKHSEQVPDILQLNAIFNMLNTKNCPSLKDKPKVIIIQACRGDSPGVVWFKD
T3 sequence (P29466 317-404 limits assumed): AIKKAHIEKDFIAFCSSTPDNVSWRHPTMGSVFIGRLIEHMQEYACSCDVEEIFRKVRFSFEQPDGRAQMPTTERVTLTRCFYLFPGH

caspase-3 [1] = target: T4, caspase-3 (Homo sapiens, UniProt P42574); test: Reversibility assay (gel filtration); type: biochemical
T4 construct: purchased Sigma-Aldrich (St. Louis, Mo.)
T4 sequence (P42574 29-175 limits assumed): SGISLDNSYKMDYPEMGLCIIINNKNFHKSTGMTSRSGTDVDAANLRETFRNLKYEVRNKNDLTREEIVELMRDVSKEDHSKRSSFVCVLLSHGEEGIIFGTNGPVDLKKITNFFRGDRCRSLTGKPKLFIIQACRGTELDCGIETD
T4 sequence (P42574 176-277 limits assumed): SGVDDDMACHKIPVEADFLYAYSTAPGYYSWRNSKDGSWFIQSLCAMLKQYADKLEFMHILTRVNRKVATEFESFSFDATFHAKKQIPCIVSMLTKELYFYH

caspase 8 = target: T5, caspase 8 (Homo sapiens, UniProt Q14790); test: Enzyme inhibition assay, caspase 8 (fluorogenic Ac-IETD-AMC); type: biochemical
T5 construct: purchased Sigma-Aldrich (St. Louis, Mo.)
T5 sequence (Q14790 217-374 limits assumed): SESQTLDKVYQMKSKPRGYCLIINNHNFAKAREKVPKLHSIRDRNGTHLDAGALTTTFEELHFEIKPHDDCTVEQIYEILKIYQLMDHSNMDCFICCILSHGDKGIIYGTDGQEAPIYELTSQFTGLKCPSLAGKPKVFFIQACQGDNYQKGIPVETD
T5 sequence (Q14790 385-479 limits assumed): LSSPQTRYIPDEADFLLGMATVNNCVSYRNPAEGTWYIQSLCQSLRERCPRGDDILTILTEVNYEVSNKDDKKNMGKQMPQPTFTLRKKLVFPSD

caspase-3 [2] = target: T4, caspase-3; test: Enzyme inhibition assay, caspase 3 (fluorogenic Ac-DEVD-AMC); type: biochemical
[3] = MicroPET imaging of [^18F]WC-II-89 in control and cycloheximide-treated rat; type: in vivo; settings: cycloheximide 3-hour pretreated rat versus control, 10-60 minutes post-i.v. injection
Description: MicroPET imaging studies were performed using a MicroPET Focus 220 and MicroPET Focus 120 scanner (Siemens/CTI, Knoxyille, Tenn.). A control and cycloheximide-treated (5 mg/kg, 3 hours pretreated) rat were anesthetized and a catheter inserted in the jugular vein. […] MicroPET images were reconstructed with OSEM-2D data analysis software package (Siemens/CTI, Knoxyille, Tenn.).
This was also confirmed by Western blot analysis of the rat livers following completion of the microPET imaging study.

[4] = Biodistribution of [^18F]WC-II-89 in normal and cycloheximide-treated rats; type: in vivo, Sprague-Dawley rats
Description: All animal studies were performed in accordance with the regulations of the Washington University Institutional Animal Care and Use Committee. Mature male Sprague Dawley rats from Charles River Laboratories were briefly anesthetized with 1-2% isoflurane in oxygen. […] Treated rats also received 5 mg/kg cycloheximide in saline via the tail vein three hours prior to radiotracer administration in order to induce caspase-mediated liver apoptosis. At set time-points following radiopharmaceutical injection, rats were again anesthetized and euthanized. Target and non-target organs were removed, weighed, and the radioactivity was counted using a Beckman Gamma 8000 well counter. Standard dilutions of the injected dose were counted along with the samples and uptake was calculated and reported as percent injected dose per gram (% ID/g).
This model, which uses the protein synthesis inhibitor, cycloheximide (CHX), was previously used in the evaluation of radiolabeled annexin V analogs (37). Tissue morphology and TUNEL staining studies have shown that cycloheximide induces apoptosis in rat liver in both a dose-dependent and time-dependent manner. Within 3 hours of treatment with 1.5, 3, or 10 mg of cycloheximide per kilogram of body weight, apoptosis was induced in rat liver (35, 36). Therefore, we chose 3 hours treatment of 5 mg/kg to induce the maximum apoptosis in rat liver, expecting a high level of caspase-3 activation.
In general, the initial uptake was higher for CHX treated rats than control rats. However, the difference between control and treated rats was reduced with time with the exception of the liver and spleen.

SMILES: COc1ccc(CN2C(=O)C(=C(C#N)C#N)c3cc(S(=O)(=O)N4CCCC4COc4cccnc4)ccc32)cc1 (centres unmarked) [Compound 30d, 2-{1-(4-Methoxy-benzyl)-2-oxo-5-[2-(pyridin-3-yloxymethyl)-pyrrolidine-1-sulfonyl]-1,2-dihydro-indol-3-yl-idene}-malononitrile]
- IC50 (caspase 7; IC50 (nM) Casp-7, Table 7): 29.6 ± 1.4 nM
- IC50 (caspase 7; IC50 (nM) Caspase 7, Table 2): 29.6 ± 1.4 nM
- IC50 (caspase 7; read-out: IC50 for caspase-7): 15.1 nM
- IC50 (caspase 6): 610 ± 113 nM
- IC50 (caspase 6; read-out: IC50 for caspase-6): 515 to 770 nM
- IC50 (caspase 1): 3900 nM
- IC50 (caspase 1; IC50 (nM) Casp-1, Table 7): 3900 ± 530 nM
- IC50 (caspase 1; read-out: IC50 for caspase-1): 2700 to 3200 nM
- caspase 3 activity after incubation with inhibitor (caspase-3 [1]; 3 μM, 1 hour on ice, before gel filtration): fully inhibited
- recovered caspase-3 activity after gel filtration (caspase-3 [1]; elutant compared to untreated elutant A): full caspase 3 activity
- IC50 (caspase 8; Table 2, read-out: IC50 (nM) Caspase 8): > 50000 nM
- IC50 (caspase 8; Table 7, read-out: IC50 (nM) Casp-8): > 50000 nM
- IC50 (caspase 8; read-out: IC50 for caspase-8): > 50000 nM
- IC50 (caspase-3 [2]; IC50 (nM) Casp-3, Table 7): 7.8 ± 1.5 nM
- IC50 (caspase-3 [2]; IC50 (nM) Caspase 3, Table 2): 7.8 ± 1.5 nM
- IC50 (caspase-3 [2]; IC50 for caspase-3): 7.8 nM

- % I.D./gram ([4]; blood, control rats, 5 min.): 2.70 ± 0.21 % I.D./gram
- % I.D./gram ([4]; blood, control rats, 1 hr.): 0.11 ± 0.01 % I.D./gram
- % I.D./gram ([4]; blood, control rats, 2 hr.): 0.06 ± 0.01 % I.D./gram
- % I.D./gram ([4]; blood, cycloheximide-treated rats, 5 min.): 3.66 ± 0.40 % I.D./gram
- % I.D./gram ([4]; blood, cycloheximide-treated rats, 1 hr.): 0.16 ± 0.01 % I.D./gram
- % I.D./gram ([4]; blood, cycloheximide-treated rats, 2 hr.): 0.07 ± 0.00 % I.D./gram
- % I.D./gram ([4]; bone, control rats, 5 min.): 0.44 ± 0.04 % I.D./gram
- % I.D./gram ([4]; bone, control rats, 1 hr.): 0.13 ± 0.02 % I.D./gram
- % I.D./gram ([4]; bone, control rats, 2 hr.): 0.15 ± 0.06 % I.D./gram
- % I.D./gram ([4]; bone, cycloheximide-treated rats, 5 min.): 0.66 ± 0.06 % I.D./gram
- % I.D./gram ([4]; bone, cycloheximide-treated rats, 1 hr.): 0.12 ± 0.01 % I.D./gram
- % I.D./gram ([4]; bone, cycloheximide-treated rats, 2 hr.): 0.13 ± 0.03 % I.D./gram
- uptake of radioactivity in bone ([4]; bone, defluorination): very low uptake
- % I.D./gram ([4]; fat, control rats, 5 min.): 0.12 ± 0.02 % I.D./gram
- % I.D./gram ([4]; fat, control rats, 1 hr.): 0.15 ± 0.02 % I.D./gram
- % I.D./gram ([4]; fat, control rats, 2 hr.): 0.07 ± 0.01 % I.D./gram
- % I.D./gram ([4]; fat, cycloheximide-treated rats, 5 min.): 0.09 ± 0.03 % I.D./gram
- % I.D./gram ([4]; fat, cycloheximide-treated rats, 1 hr.): 0.14 ± 0.01 % I.D./gram
- % I.D./gram ([4]; fat, cycloheximide-treated rats, 2 hr.): 0.09 ± 0.01 % I.D./gram
- % I.D./gram ([4]; kidney, control rats, 5 min.): 1.25 ± 0.14 % I.D./gram
- % I.D./gram ([4]; kidney, control rats, 1 hr.): 0.53 ± 0.07 % I.D./gram
- % I.D./gram ([4]; kidney, control rats, 2 hr.): 0.18 ± 0.04 % I.D./gram
- % I.D./gram ([4]; kidney, cycloheximide-treated rats, 5 min.): 1.18 ± 0.08 % I.D./gram
- % I.D./gram ([4]; kidney, cycloheximide-treated rats, 1 hr.): 0.55 ± 0.05 % I.D./gram
- % I.D./gram ([4]; kidney, cycloheximide-treated rats, 2 hr.): 0.23 ± 0.05 % I.D./gram
- uptake in liver, treated rats higher than control ([4]; liver, 1-hour post-i.v. injection, cycloheximide-treated vs control): 94%
- % I.D./gram ([4]; liver, control rats, 5 min.): 3.13 ± 0.26 % I.D./gram
- % I.D./gram ([4]; liver, control rats, 1 hr.): 0.38 ± 0.06 % I.D./gram
- % I.D./gram ([4]; liver, control rats, 2 hr.): 0.16 ± 0.02 % I.D./gram
- % I.D./gram ([4]; liver, cycloheximide-treated rats, 5 min.): 4.02 ± 0.45 % I.D./gram
- % I.D./gram ([4]; liver, cycloheximide-treated rats, 1 hr.): 0.73 ± 0.12 % I.D./gram
- % I.D./gram ([4]; liver, cycloheximide-treated rats, 2 hr.): 0.22 ± 0.03 % I.D./gram
- % I.D./gram ([4]; lung, control rats, 5 min.): 1.42 ± 0.34 % I.D./gram
- % I.D./gram ([4]; lung, control rats, 1 hr.): 0.18 ± 0.03 % I.D./gram
- % I.D./gram ([4]; lung, control rats, 2 hr.): 0.08 ± 0.01 % I.D./gram
- % I.D./gram ([4]; lung, cycloheximide-treated rats, 5 min.): 2.08 ± 0.23 % I.D./gram
- % I.D./gram ([4]; lung, cycloheximide-treated rats, 1 hr.): 0.23 ± 0.03 % I.D./gram
- % I.D./gram ([4]; lung, cycloheximide-treated rats, 2 hr.): 0.11 ± 0.02 % I.D./gram
- % I.D./gram ([4]; muscle, control rats, 5 min.): 0.14 ± 0.01 % I.D./gram
- % I.D./gram ([4]; muscle, control rats, 1 hr.): 0.08 ± 0.01 % I.D./gram
- % I.D./gram ([4]; muscle, control rats, 2 hr.): 0.03 ± 0.00 % I.D./gram
- % I.D./gram ([4]; muscle, cycloheximide-treated rats, 5 min.): 0.09 ± 0.00 % I.D./gram
- % I.D./gram ([4]; muscle, cycloheximide-treated rats, 1 hr.): 0.10 ± 0.02 % I.D./gram
- % I.D./gram ([4]; muscle, cycloheximide-treated rats, 2 hr.): 0.06 ± 0.00 % I.D./gram
- uptake in spleen, treated rats higher than control ([4]; spleen, 1-hour post-i.v. injection, cycloheximide-treated vs control): 184%
- % I.D./gram ([4]; spleen, control rats, 5 min.): 1.14 ± 0.08 % I.D./gram
- % I.D./gram ([4]; spleen, control rats, 1 hr.): 0.15 ± 0.05 % I.D./gram
- % I.D./gram ([4]; spleen, control rats, 2 hr.): 0.06 ± 0.01 % I.D./gram
- % I.D./gram ([4]; spleen, cycloheximide-treated rats, 5 min.): 2.24 ± 0.41 % I.D./gram
- % I.D./gram ([4]; spleen, cycloheximide-treated rats, 1 hr.): 0.43 ± 0.05 % I.D./gram
- % I.D./gram ([4]; spleen, cycloheximide-treated rats, 2 hr.): 0.11 ± 0.03 % I.D./gram
- % I.D./gram ([4]; thymus, control rats, 5 min.): 0.23 ± 0.07 % I.D./gram
- % I.D./gram ([4]; thymus, control rats, 1 hr.): 0.09 ± 0.01 % I.D./gram
- % I.D./gram ([4]; thymus, control rats, 2 hr.): 0.04 ± 0.00 % I.D./gram
- % I.D./gram ([4]; thymus, cycloheximide-treated rats, 5 min.): 0.38 ± 0.10 % I.D./gram
- % I.D./gram ([4]; thymus, cycloheximide-treated rats, 1 hr.): 0.12 ± 0.02 % I.D./gram
- % I.D./gram ([4]; thymus, cycloheximide-treated rats, 2 hr.): 0.06 ± 0.01 % I.D./gram
SMILES: O=C1C(=O)N(Cc2ccc(OCC[18F])cc2)c2ccc(S(=O)(=O)N3CCC[C@H]3COc3ccccc3)cc21 [[^18F]WC-II-89]
- microPET uptake in the liver [3]: higher uptake
